Reference: article PMC4510645, “Discovery of intramolecular trans-sialidases in human gut microbiota suggests novel mechanisms of mucosal adaptation” (Nature Communications, 2015)
Entries after “also recorded” stand apart in the source; their conditions may differ.

Experiments:
RgNanH [1] = molecular target: T1, RgNanH (Mediterraneibacter gnavus (Ruminococcus gnavus), UniProt A7B557); test: Specificity against sialyl-oligosaccharides, HPAEC-PAD; assay type: biochemical, Ruminococcus gnavus ATCC 29149; parameters: key to Activity RgNanH: +: Activity was defined as disappearance of the substrate peak and appearance of a lower-molecular weight peak, which could correspond to the desialylated substrate; details: 37 °C
T1 sequence (A7B557 26-723): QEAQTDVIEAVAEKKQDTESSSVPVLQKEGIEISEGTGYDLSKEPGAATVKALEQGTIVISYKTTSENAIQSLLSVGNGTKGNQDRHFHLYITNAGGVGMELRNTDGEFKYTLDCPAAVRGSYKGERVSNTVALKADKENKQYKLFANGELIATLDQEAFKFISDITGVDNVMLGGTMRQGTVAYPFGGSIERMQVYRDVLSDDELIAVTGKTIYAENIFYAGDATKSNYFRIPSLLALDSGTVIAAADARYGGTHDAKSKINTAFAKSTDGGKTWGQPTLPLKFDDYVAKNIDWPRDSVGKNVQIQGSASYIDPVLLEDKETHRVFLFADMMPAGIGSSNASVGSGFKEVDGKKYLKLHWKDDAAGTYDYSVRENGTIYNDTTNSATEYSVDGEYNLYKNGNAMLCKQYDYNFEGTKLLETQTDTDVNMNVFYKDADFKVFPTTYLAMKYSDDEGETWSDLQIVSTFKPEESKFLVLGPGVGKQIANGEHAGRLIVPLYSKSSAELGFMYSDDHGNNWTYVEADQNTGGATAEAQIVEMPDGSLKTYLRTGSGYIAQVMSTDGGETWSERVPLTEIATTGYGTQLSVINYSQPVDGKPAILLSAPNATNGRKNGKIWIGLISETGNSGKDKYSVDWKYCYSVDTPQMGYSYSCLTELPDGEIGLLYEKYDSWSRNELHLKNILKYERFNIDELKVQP
Procedure: (§1) Figure 2 Specificity of RgNanH towards sialylated oligosaccharides. The enzymes were incubated with sialylated substrates at 37 °C, pH 6.5, overnight and the reaction products were analysed by HPAEC-PAD. Control reactions without enzyme were also performed. The injection peak is marked (inj). Glycerol (gly) was also present in AkmNan0625. (a) Standards (Lac, Neu5Ac, 3′SL and 6′SL), (b) 3′SL, (c) 6′SL and (d) 3'-α-sialyl-N-acetyllactosamine (3′SLacNAc). AkmNan1835 has a similar profile to […].
(§2) The purified enzymes were incubated with the substrate in buffer made from 20 mM Na2HPO4 and 20 mM NaH2PO4 adjusted to pH 6.5 containing 1 mg ml^−1 BSA at 37 °C unless otherwise stated. For 4MU-Neu5Ac, the progression of the reaction was monitored by the release of the MU using a 96-well plate reader (BMG Labtech, Ortenberg, Germany) using fluorescence with an excitation at 340 nm and an emission at 420 nm. For determining the optimal temperature, the assay was carried out in 20 mM PBS at pH 7.4. For determining the optimal pH, the assay was carried out at 37 °C using buffer made from 20 mM Na2HPO4 and 20 mM NaH2PO4 in varying proportions to obtain the desired pH. PNP release from PNP-Neu5Ac was monitored in a similar way measuring absorbance at 405 nm every 60 s. For 3′SL, the reaction was monitored by HPAEC-PAD. An aliquot of the reaction was removed from the main reaction volume at the reaction stopped by boiling for 20 min, the enzyme was then removed by centrifugation at 17,000g for 10 min and filtration with a 0.2-μm filter (Millipore, Billerica, USA). The sugars were separated by HPAEC with an isocratic gradient of 100 mM NaOH and 100 mM NaAC at 1 ml min^−1 on a CarboPac PA1 protected with a guard column and detected using PAD on a Dionex ICS5000 system (Thermo Scientific, Hemel Hempstead, UK). The column was cleaned with 10 ml of 500 mM NaOH and 500 mM NaAc, and the column was re-equilibrated with 100 mM NaOH and 100 mM NaAc. An internal standard of fucose was used to quantify the results.
(§3) For specificity tests against sialylated oligosaccharides (1 mM) and glycoproteins (1 mg ml^−1), 1 nM of enzyme was incubated with the substrate at 37 °C, pH 6.5, overnight.

[2] = test system: AkmNan0625 and AkmNan1835; test: Specificity against sialyl-oligosaccharides, HPAEC-PAD (control sialidases); assay type: biochemical, Akkermansia muciniphila; parameters: key to Activity AkmNan0625 and AkmNan1835: +: Activity was defined as disappearance of the substrate peak and appearance of a lower-molecular weight peak, which could correspond to the desialylated substrate; details: 37 °C; for activity of AkmNan0625 and AkmNan1835 on substrate (in words): pH 6.5; for Activity AkmNan0625 and AkmNan1835: substrate 1 mM, 1 nM enzyme, pH 6.5, overnight
Procedure: as §1
All chemicals were obtained from Sigma (St Louis, USA) unless otherwise stated. The A. muciniphila sialidases, termed here AkmNan0625 and AkmNan1835, were obtained by His-Tag overexpression of their genes (Amuc_0625 and Amuc_1835, respectively)[56] in E. coli BL21(DE3) and subsequent purification to homogeneity by immobilized metal affinity chromatography as described below. The sialylated oligosaccharides and OC were obtained from Carbosynth (Berks, UK).
as §2, §3

R. gnavus ATCC 29149 = test system: R. gnavus ATCC 29149; parameters: method as in PMID 24204617; details: cited from earlier work; for ability of the bacteria to grow on the substrate: R. gnavus ATCC 29149
RgNanH [3] = molecular target: T1, RgNanH; test: Hydrolysis of sialic acid from glycoproteins monitored by 1H NMR; assay type: biochemical, Ruminococcus gnavus ATCC 29149; details: glycoprotein 1 mg ml^−1, 1 nM enzyme, 37 °C, pH 6.5, overnight
Procedure: The ability of RgNanH to hydrolyse sialic acid from glycoproteins was investigated by incubation of the enzyme with human α-1-acid glycoprotein (AGP) and fetuin (Fet) both of which are known to contain α2-3 sialyl linkages, while asialo-Fet was also included as a control.
as §3
Extracts (400 μl) were mixed with 200 μl of D2O and 20 μl of a solution of D2O containing 1 mM of TSP (sodium 3-(trimethylsilyl)-propionate-d4). Samples (500 μl) were transferred into a 5-mm NMR tube for spectral acquisition. The ^1H NMR spectra were recorded at 600 MHz on a Bruker Avance spectrometer (Bruker BioSpin GmbH, Rheinstetten, Germany) running Topspin 2.0 software, and were fitted with a cryoprobe and a 60-slot autosampler. Each ^1H NMR spectrum was acquired with 128 scans, a spectral width of 8,012.8 Hz, an acquisition time of 2.04 s and a relaxation delay of 2.0 s. The ‘noesypr1d' presaturation sequence was used to suppress the residual water signal with a low-power selective irradiation at the water frequency during the recycle delay and a mixing time of 100 ms. Spectra were transformed with a 0.3-Hz line broadening, manually phased, baseline corrected and referenced by setting the TSP methyl signal to 0 p.p.m.

RgNanH [4] = molecular target: T1, RgNanH; test: Kinetic parameters of RgNanH with sialylated substrates; assay type: biochemical, Ruminococcus gnavus ATCC 29149; details: pH 6.5, 37 °C
Procedure: as §2
For 4MU-Neu5Ac and 3′SL, the rate of hydrolysis without enzyme was not significant, thus raw data were used. However, for pNP-Neu5Ac, the rate of hydrolysis without enzyme was significant, thus the rate with enzyme was corrected by the subtraction of the rate without enzyme at each concentration of substrate. For 3′SL, the rate of reaction was calculated by plotting the amount of substrate remaining over the course of >50 % of the reaction using the following equation[58]: […]
Where k is kcat/KM × enzyme concentration, t is time, [S0] and [St] are substrate concentrations at time 0 and t, respectively.
Kinetic data were obtained from at least duplicate (usually triplicate) experiments, and the kinetic parameters were calculated by fitting the initial raw data to the Michaelis–Menten equation using a nonlinear regression analysis programme (Prism 6, GraphPad, San Diego, USA), and error bars (s.e.m.) are shown.

RgNanH [5] = molecular target: T1, RgNanH; test: Inhibition of RgNanH activity against 4MU-Neu5Ac by neuraminidase inhibitors; assay type: biochemical, Ruminococcus gnavus ATCC 29149; details: 4MU-Neu5Ac 0.51 mM, 1 nM enzyme; Neu5Ac 0-0.3 mM, Lac 0-1.5 mM; pH 6.5, 37 °C
Procedure: Figure 1 Kinetic analysis of the hydrolysis of sialylated substrates by RgNanH in presence or absence of inhibitors. Substrate (a) 4MU-Neu5Ac or (b) PNP-Neu5Ac was incubated with RgNanH ([…] and 0.43 nM, respectively) at 37 °C, pH 6.5 and the release of product measured using a plate reader. (c) Inhibition of RgNanH (1.00 nM) incubated with 4MU-Neu5Ac (0.51 mM) by zanamivir (●), Neu5Ac2en (▪), siastatin B (▴) and OC (♦), the rates are normalized to a % of the uninhibited rate. [I] is the inhibitor concentration. (d) 3′SL was incubated with RgNanH (2.25 nM) and the release of product measured by HPAEC-PAD. Experiments were done at least in duplicate (usually triplicate) and the error bars show the s.e.m.
as §2, with “results. […]” for “results.”

[6] = Spontaneous interconversion of 2,7-anhydro-Neu5Ac and Neu5Ac by 1H NMR; assay type: physicochemical; details: up to 24 h at 37 °C
Procedure: The products of the reaction were thus further monitored by ^1H nuclear magnetic resonance (NMR). […] (Fig. 3). These peaks are characteristic of 2,7-anhydro-α-N-acetylneuraminic acid (2,7-anhydro-Neu5Ac) and arise from the protons in positions 6 and 7 (Fig. 3a). Peaks corresponding to 2,7-anhydro-Neu5Ac were observed when RgNanH was incubated in presence of 4MU-Neu5Ac (Fig. 3a) or 3′SL (Fig. 3b). […] The signals of 2,7-anhydro-Neu5Ac and their chemical shifts are shown in Supplementary Table 1. This product was absent in control experiments using A. muciniphila sialidases (AkmNan0625 and AkmNan1835) or in absence of enzyme, confirming the specificity of the enzymatic reaction (Supplementary Fig. 5).
Extracts (400 μl) were mixed with 200 μl of D2O and 20 μl of a solution of D2O containing 1 mM of TSP (sodium 3-(trimethylsilyl)-propionate-d4). Samples (500 μl) were transferred into a 5-mm NMR tube for spectral acquisition. The ^1H NMR spectra were recorded at 600 MHz on a Bruker Avance spectrometer (Bruker BioSpin GmbH, Rheinstetten, Germany) running Topspin 2.0 software, and were fitted with a cryoprobe and a 60-slot autosampler. Each ^1H NMR spectrum was acquired with 128 scans, a spectral width of 8,012.8 Hz, an acquisition time of 2.04 s and a relaxation delay of 2.0 s. […]

## Neu5Ac-α-2-6-Gal-β1-4-Glc [6′SL]
RgNanH [1]; pH 6.5
  enzymatic activity of RgNanH on substrate (in words): no enzymatic activity
[2]
  activity of AkmNan0625 and AkmNan1835 on substrate (in words): active
  Activity AkmNan0625 and AkmNan1835: +
R. gnavus ATCC 29149
  ability of the bacteria to grow on the substrate: not

## asialo-Fet: asialo-fetuin, included as a control
RgNanH [3]
  activity of RgNanH against glycoprotein (2,7-anhydro-Neu5Ac peaks by 1H NMR): no change

## AGP: human α-1-acid glycoprotein, known to contain α2-3 sialyl linkages
RgNanH [3]
  activity of RgNanH against glycoprotein (2,7-anhydro-Neu5Ac peaks by 1H NMR): showed activity
RgNanH [3]; listed as α-1-AGP
  activity of RgNanH against glycoprotein (2,7-anhydro-Neu5Ac peaks by 1H NMR): substrates

## Neu5Ac-α-2-3-Gal-β-1-4-Glc [3′SL]
RgNanH [4]; substrate inhibition, s.e.m.
  Ki: 760 ± 230 µM
RgNanH [4]; substrate of RgNanH
  kcat: 0.4283 s⁻¹
RgNanH [4]; substrate of RgNanH, s.e.m.
  KM: below detection limit
  Km: < 100 µM
  Vmax: 0.0566 ± 0.0057 µM/min
RgNanH [1]; substrate 1 mM, 1 nM enzyme, pH 6.5, overnight
  Activity RgNanH: +
[2]
  activity of AkmNan0625 and AkmNan1835 on substrate (in words): active
  Activity AkmNan0625 and AkmNan1835: +
R. gnavus ATCC 29149
  ability of the bacteria to grow on the substrate: grow

## OC[C@H]1O[C@@H](O[C@H]2[C@H](O)[C@@H](O)C(O)O[C@@H]2CO)[C@H](O)[C@@H](O)[C@H]1O (mixture of isomers) [lactose]
RgNanH [5]
  Inhibition of RgNanH: not inhibited
R. gnavus ATCC 29149
  ability of the bacteria to grow on the substrate: not

## CC(=O)N[C@H]1[C@H]([C@H](O)[C@H](O)CO)OC(O)(C(=O)O)C[C@@H]1O (stereo partly drawn) [Neu5Ac, sialic acid]
RgNanH [5]
  Inhibition of RgNanH: not inhibited
[6]
  spontaneous conversion between 2,7-anhydro-Neu5Ac and Neu5Ac: no evidence of spontaneous conversion
R. gnavus ATCC 29149
  ability of the bacteria to grow on the substrate: not
R. gnavus ATCC 29149; R. gnavus ATCC 29149 and E1
  growth on sole carbon source: could not grow

## CC(=O)N[C@H]1[C@H]2O[C@@](C(=O)O)(C[C@@H]1O)O[C@@H]2[C@H](O)CO [2,7-anhydro-Neu5Ac, 2,7-anhydro-α-N-acetylneuraminic acid]
[6]
  spontaneous conversion between 2,7-anhydro-Neu5Ac and Neu5Ac: no spontaneous conversion

## Fet: fetuin, glycoprotein known to contain α2-3 sialyl linkages
RgNanH [3]
  activity of RgNanH against glycoprotein (2,7-anhydro-Neu5Ac peaks by 1H NMR): showed activity; also recorded: substrates
